Laboratory results reported in ChEMBL document CHEMBL3817779, “Identification of novel 2-aminothiazole conjugated nitrofuran as antitubercular and antibacterial agents” (Bioorg Med Chem Lett, 2016).
Converted amounts (≈) assume the structure as drawn.

Legend:
[1] = tested on: Mycobacterium tuberculosis; type: functional; conditions: H37Ra ATCC 25177
[2] = tested on: Mycobacterium tuberculosis; type: functional; conditions: H37Ra ATCC 25177; remark: listed apart in the source
Vero = test: Cytotoxicity against African green monkey Vero cells assessed as reduction in cell viability after 72 hrs by MTT assay; type: cell-based; conditions: Chlorocebus sabaeus
[3] = tested on: Mycobacterium tuberculosis; test: Antitubercular activity against Mycobacterium tuberculosis H37Rv assessed as inhibition of visible growth after 7 days by microbroth dilution method; type: functional; conditions: 168 h
Staphylococcus aureus [4] = test: Antibacterial activity against Staphylococcus aureus ATCC 6538; type: functional
[5] = Aqueous solubility in water at room temperature sonicated for 30 mins followed by overnight incubation by HPLC analysis; type: physicochemical
[6] = tested on: Mycobacterium tuberculosis; test: microbe, parasite or virus in culture; conditions: H37Ra ATCC 25177
Description: Antitubercular activity against Mycobacterium tuberculosis H37Ra ATCC 25177

[7] = tested on: Mycobacterium tuberculosis; type: functional; conditions: H37Ra ATCC 25177; remark: listed apart in the source
Staphylococcus aureus [8] = test: Antibacterial activity against Staphylococcus aureus ATCC 6538 at 20 uM relative to control; type: functional

| SMILES | inhibition at 10 µM [1] [%] | inhibition at 1 µM [2] [%] | IC50 (Vero) [µM] | MIC [3] [µg/mL] | MIC (Staphylococcus aureus [4]) [µg/mL] | solubility at 0.5 h [5] [µg/mL] | MIC90 [6] [µg/mL] | inhibition at 20 µM [7] [%] | inhibition at 20 µM (Staphylococcus aureus [8]) [%] |
| --- | --- | --- | --- | --- | --- | --- | --- | --- | --- |
| O=C(Nc1nc(-c2c(F)cc(F)cc2F)cs1)c1ccc([N+](=O)[O-])o1 | -10.1 | -4.1 | 19.9 |  |  |  |  |  |  |
| COc1ccc(-c2csc(NC(=O)c3ccc([N+](=O)[O-])o3)n2)cc1 | 99.3 | -8.3 | 63 |  |  |  |  |  |  |
| O=[N+]([O-])c1ccc(C2=NOC(c3ccc(N4CCC(Oc5ccc(OC(F)(F)F)cc5)CC4)cc3)C2)o1 (stereo unspecified) |  |  |  | 0.024 (≈ 0.0464 µM) |  |  |  |  |  |
| O=C(Nc1nc(-c2cccc(NS(=O)(=O)Cc3ccccc3)c2)cs1)c1ccc([N+](=O)[O-])o1 |  | 93.9 | 59.3 |  | 1.52 (≈ 3.14 µM) | 0.48 (≈ 0.991 µM) | 0.61 (≈ 1.26 µM) |  |  |
| COc1ccc(C(=O)Nc2cccc(-c3csc(NC(=O)c4ccc([N+](=O)[O-])o4)n3)c2)cc1 |  | -2.7 |  |  |  |  |  |  |  |
| O=C(Nc1nc(-c2cccc(Cl)c2)cs1)c1ccc([N+](=O)[O-])o1 | 99.2 | 40.5 | 43.7 |  |  |  |  |  |  |
| O=C(Nc1nc(-c2cccc(NC(=O)C3CCCC3)c2)cs1)c1ccc([N+](=O)[O-])o1 |  | 0.2 |  |  |  |  |  |  |  |
| Cc1cc(C)c(-c2csc(NC(=O)c3ccc([N+](=O)[O-])o3)n2)c(C)c1 | -4.3 | 0.9 | 30.4 |  |  |  |  |  |  |
| CS(=O)(=O)Nc1cccc(-c2csc(NC(=O)c3ccc([N+](=O)[O-])o3)n2)c1 | 82.1 | -4.1 | < 2.81 |  |  |  |  |  |  |
| O=C(Nc1nc(-c2cccc(NC(=O)C3CC3)c2)cs1)c1ccc([N+](=O)[O-])o1 | 99.6 | 99.3 | 35.7 |  | 2.49 (≈ 6.25 µM) | 0.47 (≈ 1.18 µM) | 0.5 (≈ 1.26 µM) |  |  |
| CC(C)(C)OC(=O)Nc1cccc(-c2csc(NC(=O)c3ccc([N+](=O)[O-])o3)n2)c1 |  | 40 |  |  |  |  |  |  |  |
| O=C(Nc1cccc(-c2csc(NC(=O)c3ccc([N+](=O)[O-])o3)n2)c1)c1ccccc1 | 99.5 | 98.9 | 50.2 |  | 1.36 (≈ 3.13 µM) | 1.27 (≈ 2.92 µM) | 0.27 (≈ 0.621 µM) |  |  |
| COc1cccc(-c2csc(NC(=O)c3ccc([N+](=O)[O-])o3)n2)c1 | 100 | 68.8 | 58.7 |  |  |  |  | 99.5 | 99.5 |
| CCOc1cccc(-c2csc(NC(=O)c3ccc([N+](=O)[O-])o3)n2)c1 | 99.4 | 95.7 | > 90 |  | 4.49 (≈ 12.5 µM) | 0.34 (≈ 0.946 µM) | 0.9 (≈ 2.5 µM) |  |  |
| COc1cccc(-c2csc(NC(=O)c3ccc(N)o3)n2)c1 |  | 5.2 |  |  |  |  |  |  |  |
| Nc1cccc(-c2csc(NC(=O)c3ccc([N+](=O)[O-])o3)n2)c1 |  | -1.1 |  |  |  |  |  |  |  |

| SMILES | inhibition at 10 µM [1] [%] | inhibition at 1 µM [2] [%] | IC50 (Vero) [µM] | MIC [3] [µg/mL] | MIC (Staphylococcus aureus [4]) [µg/mL] | solubility at 0.5 h [5] [µg/mL] | MIC90 [6] [µg/mL] | inhibition at 20 µM [7] [%] | inhibition at 20 µM (Staphylococcus aureus [8]) [%] |
| --- | --- | --- | --- | --- | --- | --- | --- | --- | --- |
| COc1ccccc1-c1csc(NC(=O)c2ccc([N+](=O)[O-])o2)n1 | 99.5 | -3 | 42 |  |  |  |  |  |  |
| O=C(Nc1nc(-c2cccc(Br)c2)cs1)c1ccc([N+](=O)[O-])o1 | 98.9 | 70.4 | 71 |  |  |  |  |  |  |
| COc1cccc(-c2csc(NC(=O)c3ccc([N+](=O)[O-])cc3)n2)c1 | -1.5 | -0.4 | > 90 |  |  |  |  |  |  |
| CC(C)Oc1cccc(-c2csc(NC(=O)c3ccc([N+](=O)[O-])o3)n2)c1 | 99.2 | 97.8 | 69.5 |  | 4.67 (≈ 12.5 µM) | 0.27 (≈ 0.723 µM) | 0.47 (≈ 1.26 µM) |  |  |
| O=C(Nc1nc(-c2cccc(NC(=O)C3CCC3)c2)cs1)c1ccc([N+](=O)[O-])o1 |  | 1.9 |  |  |  |  |  |  |  |
| O=C(Nc1nc(-c2ccccc2)cs1)c1ccc([N+](=O)[O-])o1 | 99.5 | 37.2 | 41.7 |  |  |  |  |  |  |
| CC(=O)Nc1cccc(-c2csc(NC(=O)c3ccc([N+](=O)[O-])o3)n2)c1 | 99.4 | 40.6 | 57.6 |  |  |  |  |  |  |
| O=C(Nc1nc(-c2cccc(NC(=O)C3CCCCC3)c2)cs1)c1ccc([N+](=O)[O-])o1 | 99.1 | 98.9 | 21.9 |  | 2.75 (≈ 6.24 µM) | 3.46 (≈ 7.86 µM) | 0.28 (≈ 0.636 µM) |  |  |
| O=C(Nc1cccc(-c2csc(NC(=O)c3ccc([N+](=O)[O-])o3)n2)c1)c1cccc(C(F)(F)F)c1 |  | 13.7 |  |  |  |  |  |  |  |
| O=C(Nc1nc(-c2cccc(C(F)(F)F)c2)cs1)c1ccc([N+](=O)[O-])o1 | 98.6 | 67 | 23.9 |  |  |  |  |  |  |
| O=C(Nc1cccc(-c2csc(NC(=O)c3ccc([N+](=O)[O-])o3)n2)c1)c1ccc(F)cc1 |  | 39.8 |  |  |  |  |  |  |  |
| O=C(Nc1nc(-c2cccc(OC3CCCC3)c2)cs1)c1ccc([N+](=O)[O-])o1 | 99.3 | 97.9 | 81.1 |  | 4.99 (≈ 12.5 µM) | 0.027 (≈ 0.0676 µM) | 1 (≈ 2.5 µM) |  |  |
| O=C(Nc1nc(-c2cccc(F)c2)cs1)c1ccc([N+](=O)[O-])o1 | 99.6 | 95.7 | 51.6 |  | 4.17 (≈ 12.5 µM) | 14.8 (≈ 44.5 µM) | 0.83 (≈ 2.49 µM) |  |  |
| COc1cccc(-c2csc(NC(=O)c3ccco3)n2)c1 | -0.9 | 1.9 | > 90 |  |  |  |  |  |  |
| O=C(O)c1cn(C2CC2)c2cc(N3CCNCC3)c(F)cc2c1=O [CIPROFLOXACIN] | 99.7 | 99.6 |  |  | 0.26 (≈ 0.785 µM) |  | 1.04 (≈ 3.14 µM) |  |  |
